Laboratory results reported in patent US4008219A, “4-Benzazonine derivatives and process for preparation thereof” (Nihon Iyakuhin Kogyo Co., Ltd., priority 1973, dated 1977).
Counter-ions that a name gives are not always drawn.

Key:
mice of the ddN-series [1] = assay: Analgesic test, Chemical Stimulus Method (Writhing Method); assay type: in vivo, mouse; parameters: scale not given here; conditions: interabdominal injection, comparative value, scale not given
Experimental: (§1) Results of comparative tests where the medicinal effects of compounds of this invention were compared with those of known compounds such as pentazocine and codeine phosphate by employing mice and guinea pigs as the test animals are shown in the following Tables I and II.
Chemical Stimulus Method^1)
(interabdominal injection)
(§2) Tested Animal: mice of the ddN-series, .male., 20 ± 1 experimental
(§3) Conditions: temperature of 24 ± 1° C., relative humidity of 65
^1) R. Koster, M. Anderson and E. J. De Beer, Federation Proceedings, […]

Acute Toxicity = conditions: in vivo; mouse, intravenous injection
Experimental: as §2, §3

mice of the ddN-series [2] = assay: Analgesic test, Heat Stimulus Method (Hot Plate Method); assay type: in vivo, mouse; parameters: reference not given here; conditions: hypodermic injection, comparative value, scale not given
Experimental: as §1
Heat Stimulus Method^2)
as §2, §3
^2) G. Woolfe and A. D. Mac Donald; Journal of Pharmacology and […]

[3] = Hygroscopicity of the salt; assay type: physicochemical; conditions: crystalline salt, cis-form
guinea pigs [4] = assay: Antitussive effect, Chemical Stimulus Method (SO2 gas); assay type: in vivo, guinea pig; conditions: for ED50: Cavia porcellus, sc, 0.5 h, read-out: ED50, Chemical Stimulus Method (antitussive); for Effect Ratio to Codeine Phosphate, Chemical Stimulus Method: codeine phosphate = 100
Text: as §1
(§4) Comparison of Antitusive Effects
2) Takagi et al modification [Journal of Pharmaceutical Society of Japan,
80, 1497 (1960)] of the test method of H. Friebel, C. Reichle and A. V.
Gravenitz [Archiv Fur experimentalle Phathologie und Pharmakologie,
Naunyn-Schmiede-berg's, 224,384 (1955)], in which the test compound was
hypodermically injected into guinea pigs, 30 minutes after the injection
the quinea pigs were put into a desiccator filled with SO2 gas and
kept in the desiccator for 1 minute, then the guinea pigs were put into
another vessel and the degree of coughing was examined.

mice of the ddN-series [5] = assay: Analgesic test, Pressure Stimulus Method; assay type: in vivo, mouse; conditions: hypodermic injection, comparative value, pentazocine 1.0
Experimental: as §1
Pressure Stimulus Method^3)
R (hypodermic injection)
as §2, §3
^3) A. F. Green, P. A. Yound and E. I. Godfrey; British Journal of
Pharmacology and Chemotherapy, 6, 572 (1951)

guinea pigs [6] = assay: Antitussive effect, Mechanical Stimulus Method; assay type: in vivo, guinea pig; conditions: for ED50: Cavia porcellus, swine hairs inserted into the trachea; for Effect Ratio to Codeine Phosphate, Mechanical Stimulus Method: codeine phosphate = 100
Text: as §1, §4
Mechanical Stimulus Method^1)
1) Takagi et al modification [Journal of the Pharmaceutical Society of
Japan, 80, 1497 (1960)] of the test method of H. Konzett and E. Rothlin
[Experientia, 10, 472 (1954)], in which urethane was hypodermically
injected (15 mg/Kg) into guinea pigs and swine hairs were inserted into
the trachea to impart stimulus.

[7] = guinea pigs, hypodermic injection, SO2 gas, 1 minute, 30 minutes after injection

| Structure (SMILES) | Chemical Stimulus Method (Writhing Method) (mice of the ddN-series [1]) | LD50 (Acute Toxicity) | Heat Stimulus Method (Hot Plate Method) (mice of the ddN-series [2]) | Pressure Stimulus Method (mice of the ddN-series [5]) | further results |
| --- | --- | --- | --- | --- | --- |
| CCN1CCC2(C)CC(Cc3ccc(OC)cc32)C1 (stereo not shown) [R=CH3O, R1=CH3, R2=H, CH2R3=CH2CH3, R4=H] | 0.8 | 120 mg/kg | 2.0 |  |  |
| c1ccc(CN2CCC3CC(Cc4ccccc43)C2)cc1 (stereo not shown) [R=H, R1=H, R2=H, CH2R3=drawing 42, R4=H] | 1.0 | 120 mg/kg | 3.0 |  |  |
| CCC12CCN(C)CC(Cc3ccc(O)cc31)C2C (stereo not shown) [Example 22] |  |  |  |  | hygroscopicity [3]: hygroscopic |
| COc1ccc2c(c1)C1(C)CCN(C)CC(C1)C2O (stereo not shown) [R=CH3O, R1=CH3, R2=H, CH2R3=CH3, R4=OH, 1,4-dimethyl-10-methoxy-2,3,4,5,6,7-hexahydro-1,6-methano-1H-4-benzazonin-7-ol] | 1.5 | 72 mg/kg | 5.0 | 1.2 | ED50 (guinea pigs [4]; [7]): 6.06 mg/kg; Effect Ratio to Codeine Phosphate, Chemical Stimulus Method (guinea pigs [4]; guinea pigs, SO2 gas): 218.8; ED50 (guinea pigs [6]): 13.7 mg/kg; Effect Ratio to Codeine Phosphate, Mechanical Stimulus Method (guinea pigs [6]): 105.5 |
| COc1ccc2c3c1O[C@H]1[C@@H](O)CC[C@H]4[C@@H](C2)N(C)CC[C@@]341 [dihydrocodeine phosphate, reference compound] |  |  |  |  | ED50 (guinea pigs [4]): 2.65 mg/kg; ED50 (guinea pigs [6]): 4.65 mg/kg |
| OC1c2ccccc2C2CCN(CCc3ccccc3)CC1C2 (stereo not shown) [Example 59, hydrobromide] |  |  |  |  | solubility in water (Solubility in water): water-soluble |
| CC(C)=CCN1CCC2(C)c3cc(O)ccc3CC1C2C (stereo not shown) [pentazocine, 1,2,3,4,5,6-hexahydro-3-(3-methyl-2-butenyl)-6, 11-dimethyl-8-hydroxy-2,6-methano-3-benzazonine, reference compound] |  | 25 mg/kg |  | 1.0 |  |
| COc1ccc2c(c1)C1(C)CCN(CCc3ccccc3)CC(C1)C2O (stereo not shown) | 1.6 | 45 mg/kg | 2.2 | 1.8 |  |
| CCC12CCN(C)CC(C(O)c3ccc(OC)cc31)C2C (stereo not shown) [Example 10, 4,12-dimethyl-1-ethyl-10-methoxy-2,3,4,5,6,7-hexahydro-1,6-methano-1H-4-benzazonin-7-ol] |  |  |  |  | hygroscopicity [3]: very hygroscopic |
| CN1CCC2(C)CC(C1)C(O)c1ccccc12 (stereo not shown) [R=H, R1=CH3, R2=H, CH2R3=CH3, R4=OH, 1,4-dimethyl-2,3,4,5,6,7-hexahydro-1,6-methano-1H-4-benzazonin-7-ol] | 0.7 | 70 mg/kg | 1.4 | 1.2 | ED50 (guinea pigs [4]; [7]): 1.64 mg/kg; Effect Ratio to Codeine Phosphate, Chemical Stimulus Method (guinea pigs [4]; guinea pigs, SO2 gas): 800.7; ED50 (guinea pigs [6]): 4.42 mg/kg; Effect Ratio to Codeine Phosphate, Mechanical Stimulus Method (guinea pigs [6]): 326.9 |
| C=CCN1CCC2CC(Cc3ccccc32)C1 (stereo not shown) [R=H, R1=H, R2=H, CH2R3=CH2CHCH2, R4=H, 4-allyl-2,3,4,5,6,7-hexahydro-1,6-methano-1H-4-benzazonine] | 1.4 | 45 mg/kg | 5.0 | 1.5 | ED50 (guinea pigs [4]; [7]): 12.7 mg/kg; Effect Ratio to Codeine Phosphate, Chemical Stimulus Method (guinea pigs [4]; guinea pigs, SO2 gas): 104.7; ED50 (guinea pigs [6]): 7.42 mg/kg; Effect Ratio to Codeine Phosphate, Mechanical Stimulus Method (guinea pigs [6]): 195.0 |
| COc1ccc2c(c1)C1(C)CCN(C)CC(C2)C1 (stereo not shown) [R=CH3O, R1=CH3, R2=H, CH2R3=CH3, R4=H] | 0.8 | 120 mg/kg | 2.0 |  |  |
| CC1C2CN(C)CCC1(C)c1ccccc1C2O (stereo not shown) [R=H, R1=CH3, R2=CH3, CH2R3=CH3, R4=OH] | 1.6 | 30 mg/kg | 2.0 | 1.5 |  |
| COc1ccc2c(c1)C1(C)CCN(CCc3ccccc3)CC(C2)C1 (stereo not shown) [R=CH3O, R1=CH3, R2=H, CH2R3=drawing 44, R4=H] | 1.5 | 48 mg/kg | 2.0 |  |  |
| CCN1CCC2(C)CC(Cc3ccc(O)cc32)C1 (stereo not shown) [R=HO, R1=CH3, R2=H, CH2R3=CH2CH3, R4=H] | 1.5 | 80 mg/kg | 2.0 |  |  |
| CC1C2Cc3ccc(O)cc3C1(C)CCN(C)C2 (stereo not shown) [Example 20] |  |  |  |  | hygroscopicity [3]: hygroscopic |
| CC(C)=CCN1CCC2CC(C1)C(O)c1ccccc12 (stereo not shown) [R=H, R1=H, R2=H, CH2R3=drawing 36, R4=OH] | 1.2 | 60 mg/kg | 1.2 | 1.4 |  |
| CN1CCC2(C)CC(Cc3ccc(O)cc32)C1 (stereo not shown) [R=HO, R1=CH3, R2=H, CH2R3=CH3, R4=H, 1,4-dimethyl-10-hydroxy-2,3,4,5,6,7-hexahydro-1,6-methano-1H-4-benzazonine] | 1.5 | 75 mg/kg | 2.0 |  |  |

| Structure (SMILES) | Chemical Stimulus Method (Writhing Method) (mice of the ddN-series [1]) | LD50 (Acute Toxicity) | Heat Stimulus Method (Hot Plate Method) (mice of the ddN-series [2]) | Pressure Stimulus Method (mice of the ddN-series [5]) | further results |
| --- | --- | --- | --- | --- | --- |
| CC1C2Cc3ccccc3C1(C)CCN(C)C2 (stereo not shown) [Example 23] |  |  |  |  | hygroscopicity [3]: hygroscopic |
| CC1C2Cc3ccc(O)cc3C1(C)CCN(CCc1ccccc1)C2 (stereo not shown) [Example 87] |  |  |  |  | hygroscopicity [3]: being hygro- |
| CCN1CCC2(C)c3cc(OC)ccc3CC(C1)C2C (stereo not shown) | 0.8 | 100 mg/kg | 2.0 |  |  |
| CC(C)CCN1CCC2(C)CC(Cc3ccc(O)cc32)C1 (stereo not shown) [R=HO, R1=CH3, R2=H, CH2R3=drawing 45, R4=H] | 1.0 | 40 mg/kg | 1.5 |  |  |
| CC(C)CCN1CCC2(C)c3cc(O)ccc3CC(C1)C2C (stereo not shown) [Example 89] |  |  |  |  | hygroscopicity [3]: being hygro- |
| COc1ccc2c3c1O[C@H]1[C@@H](O)C=C[C@H]4[C@@H](C2)N(C)CC[C@@]341 [codeine phosphate, reference compound] |  |  |  |  | ED50 (guinea pigs [4]; [7]): 13.3 mg/kg; ED50 (guinea pigs [6]): 14.5 mg/kg |
| CN1CCC2CC(Cc3ccccc32)C1 (stereo not shown) [R=H, R1=H, R2=H, CH2R3=CH3, R4=H, 4-methyl-2,3,4,5,6,7-hexahydro-1,6-methano-1H-4-benzazonine] | 2.5 | 20 mg/kg | 0.6 |  |  |
| C=CCN1CCC2(C)CC(C1)C(O)c1ccc(OC)cc12 (stereo not shown) | 1.4 | 61 mg/kg | 1.6 |  |  |
| CC1C2Cc3ccc(O)cc3C1(C)CCN(C)C2 (stereo not shown) [Example 90] |  |  |  |  | hygroscopicity [3]: being hygro- |
| c1ccc(CCN2CCC3CC(Cc4ccccc43)C2)cc1 (stereo not shown) [R=H, R1=H, R2=H, CH2R3=drawing 41, R4=H] | 0.8 | 35 mg/kg | 5.0 | 2.0 |  |
| OC1c2ccccc2C2CCN(CCc3ccccc3)CC1C2 (stereo not shown) [R=H, R1=H, R2=H, CH2R3=drawing 37, R4=OH] | 1.8 | 45 mg/kg | 4.5 | 2.0 |  |
| C=CCN1CCC2(C)CC(C1)C(O)c1ccccc12 (stereo not shown) [R=H, R1=CH3, R2=H, CH2R3=CH2CHCH2, R4=OH] | 1.8 | 55 mg/kg | 1.5 | 2.0 |  |
| CC(C)=CCN1CCC2CC(Cc3ccccc32)C1 (stereo not shown) [R=H, R1=H, R2=H, CH2R3=drawing 40, R4=H] | 1.0 | 65 mg/kg | 1.5 | 1.4 |  |
| CC1C2CN(C)CCC1(C)c1ccccc1C2O (stereo not shown) [Example 15] |  |  |  |  | hygroscopicity [3]: hygroscopic |
| CC(C)=CCN1CCC2(C)CC(Cc3ccc(O)cc32)C1 (stereo not shown) [R=HO, R1=CH3, R2=H, CH2R3=drawing 43, R4=H] | 1.0 | 40 mg/kg | 1.5 |  |  |
| CN1CCC2CC(C1)C(O)c1ccccc12 (stereo not shown) [R=H, R1=H, R2=H, CH2R3=CH3, R4=OH, 4-methyl-2,3,4,5,6,7-hexahydro-1,6-methano-1H-4-benzazonin-7-ol] |  |  |  |  | ED50 (guinea pigs [4]; [7]): 6.58 mg/kg; Effect Ratio to Codeine Phosphate, Chemical Stimulus Method (guinea pigs [4]; guinea pigs, SO2 gas): 201.4; ED50 (guinea pigs [6]): 9.21 mg/kg; Effect Ratio to Codeine Phosphate, Mechanical Stimulus Method (guinea pigs [6]): 157.1 |
| COc1ccc2c(c1)C1(C)CCN(C)CC(C2O)C1C (stereo not shown) [Example 12] |  |  |  |  | hygroscopicity [3]: hygroscopic |
| CC(C)=CCN1CCC2(C)CC(C1)C(O)c1ccccc12 (stereo not shown) [R=H, R1=CH3, R2=H, CH2R3=drawing 38, R4=OH] | 1.5 | 25 mg/kg | 1.5 | 1.6 |  |
